# Measured values taken from US6355785B1, “Guanosine-rich oligonucleotide integrase inhibitors” (Aronex Pharmaceuticals, Inc., priority 1993, dated 2002).
# Where “and” joins values, the source holds several entries; their conditions need not be identical. Identical values can stand only once. Like-named read-outs stand apart in the source and are kept apart here. Marks after values point to notes of the source that are not given here.
# Legend:
# [1] = tested on: HIV-1 strains (SKI, RF, DV, IIIB, ADP/141); assay: microbe, parasite or virus in culture; format: cell-based
# [2] = molecular target: recombinant HIV-1 integrase (wild-type) (Human immunodeficiency virus type 1 group M subtype B, UniProt P12497); assay: HIV-1 integrase 3′-processing and strand transfer assays; format: biochemical; design: Purified recombinant HIV-1 integrase enzyme (wild-type) was a generous gift from Dr. R. Craigie; purchased gift of Dr. R. Craigie, Laboratory of Molecular Biology, NIDDK (not bought)
# Procedure: Integrase enzyme assays. Purified recombinant HIV-1 integrase enzyme (wild-type) was a generous gift from Dr. R. Craigie, Laboratory of Molecular Biology, National Institute of Diabetes and Digestive and Kidney Diseases. The enzyme (0.25 μM) was preincubated in reaction buffer at 20° C. for 30 minutes. All 3′-processing and strand-transfer reactions were performed as described previously by Fresen et al. (Fresen, et al., Proc. Natl. Acad. Sci. USA 90:2399-2403 (1993)) and Mazumder et al. (Mazumder, et al., Proc. Natl. Acad. Sci. USA 91:5771-5775 (1994)). Enzyme reactions were quenched by the addition of Maxam-Gilbert loading dye, and an aliquot was electrophoresed on a denaturing 20% polyacrylamide gel. Gels were then dried and subjected to autoradiography using Kodax XAR-2 film or exposed in a Molecular Dynamics Phospholmager cassette.
# Integrase was preincubated at a final concentration of 200 (for HIV-1 and HIV-2) or 600 nM (for FIV and SIV) with inhibitor in reaction buffer (50 mM Nac1, 1 mM HEPES, pH 7.5, 50 μM dithiothreitol, 10% glycerol (wt/vol), 7.5 mM MnCl2 or MgCL2 (when specified), 0.1 mg/mL bovine serum albumin, 20 mM 2-mercaptoethanol, 10% dimethyl sulfoxide, and 25 mM MOPS, pH 7.2) at 30° C. for 30 minutes. When magnesium was used as the divalent metal ion, polyethylene glycol was added at a final concentration of 5% to increase activity as previously described (Engelman & Craigie, 1995). Preincubation for 30 minutes of the enzyme with inhibitor was performed to optimize increases the inhibitory activity in the 3′-processing reaction (Fesen et al., 1994). Then, 30 nM of the 5′-end ^32P-labeled linear oligonucleotide substrate was added, and incubation was continued for an additional 1 hr. The final reaction volume was 16 μL.
# Electrophoresis and quantitation. Reactions were quenched by the addition of an equal volume […] of loading dye (98% deionized formamide, 10 mM EDTA, 0.025% xylene cyanol, 0.025% bromophenol blue). An aliquot (5 μL) was electrophoresed on a denaturing 20% polyacrylamide gel (0.09 M Tris-borate pH 8.3, 2 mM EDTA, 20% acrylamide, 8M urea). Gels were dried, exposed in a Molecular Dynamics Phosphorimager cassette, and analyzed using a Molecular Dynamics phosphorimager (Sunnyvale, Calif.). Percent inhibition was calculated using the following equation:
# where C, N, and D are the fractions of 21mer substrate converted to 19mer (3′-processing product) or strand transfer products for DNA alone, DNA plus integrase, and integrase plus drug, respectively.
# Antiviral assay. The RF laboratory strain of HIV-1 was used to infect established cell lines for one hour at 37° C. prior to washing and resuspension in medium containing increasing concentrations of drug. […] Purified recombinant HIV-1 integrase enzyme (wild-type) was a generous gift from Dr. Craigie, Laboratory of Molecular Biology, NIDDK. All 3′-processing and strand-transfers were performed as described previously by Fresen et al. (Fresen et al. (1993) Proc. Natl. Acad. Sci. VSA 90, 2399-2403) and Mazurnder et al. (Mazumder et al. (1994) Proc. Natl. Acad. Sci. USA 91, 5771-75).
# [3] = tested on: HIV-1RF; assay: HeLa-CD4-LTR-β-galactosidase cell virus infection assay; format: cell-based
# [4] = tested on: HIV-1 laboratory isolates; assay: HIV-1 infection of PBMCs (p24); format: cell-based; conditions: HIV-1 IIIB, read-out: IC50 viral production
# [5] = tested on: HIV-1 clinical isolates; assay: microbe, parasite or virus in culture; format: cell-based; conditions: PBLs, read-out: IC50 viral production
# [6] = molecular target: HIV-1 RT (Human immunodeficiency virus type 1 group M subtype B, UniProt P04585); assay: In vitro inhibition of HIV-1 RT (kinetic analysis); format: biochemical; conditions: for IC50: read-out: ID50 (the source's name)
# [7] = tested on: HIV-1 strain DV; assay: HIV-1 induced syncytia formation assay in SUP T1 cells; format: cell-based
# [8] = molecular target: HIV-1 gp120 interaction with CD4 (Human immunodeficiency virus type 1 group M subtype B, UniProt P04578)
# [9] = tested on: HIV-1DV; assay: HIV-1 p24 production in SUP T1 cells; format: cell-based; conditions: for Percent p24 relative to infected untreated control, Day 7 / Percent p24 relative to infected untreated control, Day 11 / Percent p24 relative to infected untreated control, Day 4: 2.5 uM; for Percent p24 relative to infected untreated control, Day 7 / Percent p24 relative to infected untreated control, Day 11: drug removed day 4; for Percent p24 relative to infected untreated control, Day 4: medium replaced day 4; for IC50: SUP T1, HIV-1DV, four days
# [10] = molecular target: HIV-1 integrase (wild-type and deletion mutants) (Human immunodeficiency virus type 1 group M subtype B, UniProt P12497); assay: UV crosslinking DNA binding experiments; conditions: enzyme preincubated with oligo
# Procedure: UV crosslinking experiments. The method used has been described by Engleman et al. Engelman, et al., J. Virol. 68, 5911-5917 (1994). Briefly, integrase (at the indicated concentration) was incubated with substrate in reaction buffer as above for 5 minutes at 30° C. Reactions were then irradiated with a UV transilluminator (254 nm wavelength) from 3 cm above (2.4 mW/cm2) at room temperature for 10 minutes. An equal volume (16 μL) of 2X SDS-PAGE buffer (100 mM Tris, pH 6.8, 4% 2-mercaptoethanol, 4% SDS, 0.2% bromophenol blue, 20% glycerol) was added to each reaction. Twenty μL aliquots were heated at 95° C. for 3 minutes prior to loading on a 12% or 18% SDS-polyacrylamide gel. The gel was run at 120 V for 1.5 hours, dried, and exposed in a Phosphorlmager cassette. […] For the competition experiments (FIG. 29), integrase (200 nM) was preincubated with either the radiolabeled viral DNA substrate (20 nM) or T30177 (20 nM) for 5 minutes at 30° C. prior to the addition of competitor DNA at the indicated concentration.
# [11] = tested on: HIV-1SKI; assay: Single cycle analysis of HIV-1 cDNA, CEM-SS cells; format: cell-based; conditions: 10- to 100-fold over IC50
# [12] = Thermal denaturation of oligomer fold (UV, Tm); format: physicochemical
# [13] = Oligomer folding by circular dichroism
# [14] = molecular target: T1, recombinant RT (HIV-1BH10) (Human immunodeficiency virus type 1 group M subtype B, UniProt P03366); assay: Reverse transcriptase enzyme inhibition assays; format: biochemical; conditions: read-out: IC50 recombinant HIV-1 RT
# T1 construct: Purified recombinant RT (HIV-1BH10) was obtained from the University of Alabama; purchased University of Alabama, Center for AIDS research (obtained from)
# [15] = tested on: HIV-1DV; assay: Analysis of HIV-1 RNA and DNA in single cycle assays, SUP T1; format: cell-based
# [16] = HIV-1 RF, CEM-SS or MT4, read-out: Antiviral Assay IC50 RF
# [17] = strand transfer, read-out: Anti-Integrase Assay IC50 strand tran.
# [18] = SUP T1, HIV-1DV, four days, read-out: IC50 Syn (syncytium inhibition)
# [19] = HIV-1 IIIB, CEM-SS or MT4, read-out: Antiviral Assay IC50 IIIB
# [20] = HIV-1 SKI, CEM-SS or MT4, read-out: Antiviral Assay IC50 SKI
# [21] = anti-HIV-1 virus production, read-out: Cell Culture IC50
# [22] = 3′-processing, read-out: Anti-Integrase Assay IC50 3′-proc
# [23] = read-out: Enzyme IC50 3-′process
# [24] = cell culture, read-out: IC50 HIV-1RF
compound,measurement,setting,value
"5′-GTGATGGGTGGGTGGGT-3′ (phosphorothioate termini, further chemistry not given here) [T30526, pPT, dA for dG, tetrad-disrupted mutant of T30177]",IC50,[1]; [16],11700 nM
same,IC50,[2]; [17],123 nM
same,less potent than T30177 at inhibiting virus-infected cell β-galactosidase production,[3],10-15 fold
"O=c1[nH]cnc2c1ncn2[C@H]1CC[C@@H](CO)O1 [ddI, 2′,3′-dideoxyionsine]",IC50,[4],740 ± 50 nM
same,IC50,[5]; clinical isolate 942751,2200 ± 20 nM
same,IC50,[5]; clinical isolate BAKI (SI),2610 ± 3 nM
same,IC50,[5]; clinical isolate ROJO (SI),870 ± 1 nM
same,IC50,[5]; clinical isolate VIHU (NSI),1210 ± 9 nM
same,IC50,[5]; clinical isolate WEJO (SI),2180 ± 26 nM
same,IC50,[5]; clinical isolate WOME (SI),410 ± 8 nM
5′-gtggtgggtgggtgggtggtgggtggtggtgtgggtgggtggtg-3′ [I100-21],Ki,[6],1 nM
same,IC50,[6],4 nM
same,IC50,[7]; [18],225 nM
same,inhibition of detection of immobilized gp120 by HRP-α-gp120 antibody,[8]; control experiment,slightly inhibit
same,IC50,"[8]; read-out: ID50 [CD4], oligo binding to immobilized CD4",48 nM
same,IC50,"[8]; read-out: ID50 [gp 120], oligo preincubated with soluble gp120",70 nM
same,"Percent p24 relative to infected untreated control, Day 7",[9],0.0%
same,"Percent p24 relative to infected untreated control, Day 11",[9],0.0%
same,"Percent p24 relative to infected untreated control, Day 4",[9],0.0%
same,IC50,[9],< 200 nM
"5′-ggttggtgtggttgg-3′ [T30659, reference compound]",IC50,[1]; [19],> 20000 nM
same,IC50,[1]; [16],> 20000 nM
same,IC50,[1]; [20],2810 nM
same,IC50,[1]; [21],> 20000 nM
same,IC50,[2]; [22],> 500 nM
same,IC50,[2]; [23],750 nM
same,IC50,[2]; [17],> 500 nM
same,inhibition of integrase binding to radiolabeled U5 DNA substrate,[10],only modest inhibition of DNA binding
CC(C)OC(=O)c1cc(NC(=S)OC(C)C)ccc1Cl [UC38],IC50,[1]; [19],90 nM
same,IC50,[1]; [16],20 nM
same,IC50,[1]; [20],90 nM
same,"viral cDNA 12 hours post-infection, drug added at time of infection",[11],no detectable viral DNA
"Nc1ccn([C@H]2CC[C@@H](CO)O2)c(=O)n1 [ddC, 2′,3′-dideoxycytidine]",IC50,"[1]; Human immunodeficiency virus 1, IIIB, CEM-SS, read-out: Antiviral Assay IC50 IIIB, HIV-1 IIIB, CEM-SS or MT4",78 nM
same,IC50,"[1]; Human immunodeficiency virus 1, IIIB, CEM-SS, read-out: Antiviral Assay IC50 RF, HIV-1 RF, CEM-SS or MT4",57 nM
same,IC50,"[1]; Human immunodeficiency virus 1, IIIB, CEM-SS, read-out: Antiviral Assay IC50 SKI, HIV-1 SKI, CEM-SS or MT4",260 nM
same,IC50,"[1]; Human immunodeficiency virus 1, IIIB, CEM-SS, read-out: IC50 virus production, HIV-1 RF, CEM-SS, MOI 0.01",57 nM
same,"viral cDNA 12 hours post-infection, drug added at time of infection",[11],no detectable viral DNA
same,IC50,[2]; [22],> 1000 nM
same,IC50,[2]; [17],> 1000 nM
"5′-gtggttggtgggttggt-3′ (GTGGTTGGTGGGTTGGT; phosphorothioate termini, further chemistry not given here) [T30677, pPT variant T30177]",IC50,[1]; [21],> 40000 nM
same,IC50,[1]; [24],> 40000 nM
same,IC50,[2]; [23],620 nM
same,IC50,[2]; read-out: IC50 STR · TRA,620 nM
same,Tm,"[12]; 1 mM KCl, calculated from linear fit Tm vs Log[KCl]",17* ° C.
same,Tm,[12]; 10 mM KCl,27 °C
same,Tm,[12]; 180 mM KCl,40 °C
5′-gggtgggtgggtgggt-3′ [T30695],IC50,[1]; [21],70 nM
same,IC50,[1]; [24],70 nM
same,"midpoint of K+ induced folding transition (CD, 264 nm)","[13]; KCl, 25° C., 20 mM Li3PO4",~0.02 mM
same,midpoint of Rb+ induced folding transition (CD),[13]; RbCl,0.5 mM
same,IC50,[2]; [23],20 nM
same,IC50,[2]; read-out: Enzyme IC50 Stran Trans,60 nM
same,IC50,[2]; read-out: IC50 3′-PROC,43 ± 17 nM
same,IC50,[2]; read-out: IC50 STR · TRA,24 ± 4 nM
same,Tm,[12]; 1 mM KCl,67 °C
same,Tm,"[12]; 10 mM KCl, calculated from linear fit",87* ° C.
same,Tm,"[12]; 180 mM KCl, calculated from linear fit",110* ° C.
"Cc1cn([C@H]2C[C@H](N=[N+]=[N-])[C@@H](COP(=O)(O)OP(=O)(O)OP(=O)(O)O)O2)c(=O)[nH]c1=O [AZT 5′-triphosphate, reference compound]",IC50,"[14]; template gapped duplex DNA, duplicate experiments",470 nM and 400 nM
same,IC50,"[14]; template poly(rA)p(dT)12-18, duplicate experiments",590 nM and 600 nM
"5′-gtggtgggtgggtgggt-3′ (GTGGTGGGTGGGTGGGT; phosphodiester, 3'-propanolamine, further chemistry not given here) [I100-15, 17 mer PD, 3′-propanolamine]",Ki,[6],> 5000 nM
same,IC50,[6],> 5000 nM
same,T.I. (therapeutic index),[7],>200
same,IC50,[7]; [18],125 nM
same,IC50,"[7]; size variants of I100-15, read-out: IC50 Syn.",160 nM
same,viral DNA synthesis (PCR),[15]; 36 hr post-infection,minimal
same,HIV-1 specific transcript (RT-PCR),[15]; drug added at zero hours,reduced level of HIV-1 specific transcript
same,"Percent p24 relative to infected untreated control, Day 7",[9],0.0%
same,"Percent p24 relative to infected untreated control, Day 11",[9],0.0%
same,"Percent p24 relative to infected untreated control, Day 4",[9],0.0%
same,IC50,[9],80 nM
